The target of one assay is Protein Tat (Human immunodeficiency virus type 1 group M subtype B (isolate HXB2)(HIV-1), UniProt P04608). Type of assay: functional.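 Further: tat binding to TAR RNA read out by fluorescence polarization.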
The target in assay [1] is T1, Voltage-gated N-type calcium channel alpha-1B subunit/Amyloid beta A4 precursor protein-binding family A member 1 (Homo sapiens, UniProt Q00975+Q02410). Type of assay: protein assay.
The target in assay [2] is T2, Carboxy-terminal domain RNA polymerase II polypeptide A small phosphatase 1 (Homo sapiens, UniProt Q9GZU7).
T2 sequence (Q9GZU7 whole entry): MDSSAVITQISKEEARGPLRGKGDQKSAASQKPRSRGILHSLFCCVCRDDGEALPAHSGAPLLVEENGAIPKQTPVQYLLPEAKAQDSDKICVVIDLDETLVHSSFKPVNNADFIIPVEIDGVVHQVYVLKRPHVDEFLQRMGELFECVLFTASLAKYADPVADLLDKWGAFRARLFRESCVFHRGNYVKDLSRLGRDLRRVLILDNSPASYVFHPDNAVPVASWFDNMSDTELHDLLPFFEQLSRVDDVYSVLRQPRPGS
As to the kind of experiment: inhibitors of CTDSP1, concentration-response testing, biochemical assay, absorbance-based, actives from ultra-high-throughput screening (AID 540297). It is filed as functional.

Assay [3] has as its target T1, Voltage-gated N-type calcium channel alpha-1B subunit/Amyloid beta A4 precursor protein-binding family A member 1. It is filed as protein assay. This is another data set of the same source.
Assay [4] addresses Mitogen-activated protein kinase 10 (Homo sapiens, UniProt P53779). As to the kind of experiment: Dose response biochemical screening assay for inhibitors of c-Jun N-Terminal Kinase 3 (JNK3). [Related pubchem assays: 746 ].
Assay [5] deals with T3, Tyrosine-protein phosphatase non-receptor type 7 (Homo sapiens, UniProt P35236).
T3 sequence (P35236 whole entry): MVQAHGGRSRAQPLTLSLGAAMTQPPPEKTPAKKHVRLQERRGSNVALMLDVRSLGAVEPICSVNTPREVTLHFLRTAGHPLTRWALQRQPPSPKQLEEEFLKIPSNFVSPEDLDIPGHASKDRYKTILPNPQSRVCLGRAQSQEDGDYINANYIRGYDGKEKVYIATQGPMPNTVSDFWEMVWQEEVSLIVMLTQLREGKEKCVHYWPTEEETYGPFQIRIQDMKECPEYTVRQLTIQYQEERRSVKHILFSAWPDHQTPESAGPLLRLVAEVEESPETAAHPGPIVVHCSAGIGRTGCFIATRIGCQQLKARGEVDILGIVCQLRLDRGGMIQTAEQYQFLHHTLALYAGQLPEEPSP
As to the kind of experiment: inhibitors of human HePTP phosphatase, […], biochemical, absorbance, leukemia target (AID 521). Type of assay: functional.

Assay [6] in a line: HepG2 cell cytotoxicity, dose response, cytotoxicity control, plate reader, cherry-pick, antagonist series (AID 743416). It is filed as functional, cell-based.
Assay [7] has as its system Vero. Kind of assay: cells. Type of assay: functional, cell-based. To be noted: Chlorocebus sabaeus.
The nature of assay [8]: HepG2 cell cytotoxicity, dose response, cytotoxicity control for Shn3 inhibitor project, CellTiter-Glo, cherry-picked (AID 624134). Type of assay: functional, cell-based. Background: Cellular ATP, detected with luciferase, serves as a proxy for viable cell number.
Assay [9] concerns BJ. Kind of assay: cytotoxicity toward BJ-TERT-LT-ST fibroblasts, dose response, cell-based, RAS-independent, luminescence (AID 1935).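 Further: BJ fibroblasts immortalized with TERT plus LT and ST oncogenes.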 It is filed as functional. The settings on record: Homo sapiens.
Assay [10] is described as follows: LGR2 antagonists, dose response, cell-based, HEK293, CRE-luciferase reporter, cherry pick, set 2 (AID 743343).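 Further: transfected cells were stimulated with diluted bursicon conditioned medium after compound addition.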 Type of assay: functional. (A reporter such as luciferase makes a cellular process visible.)
Assay [11] is described as follows: Shn3 3'UTR reporter inhibitors, dose response, cell-based, Clone20 osteoblasts, firefly luciferase, cherry-picked (AID 624132).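 Further: firefly luciferase luminescence from reporter carrying the Shn3 3'UTR in osteoblasts.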 Type of assay: functional.
A short description of assay [12]: MC4R antagonists, dose response, counter-screen for LGR2 antagonist project, cell-based, plate reader, cherry pick (AID 743444).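 Further: transfected HEK 293 cells stimulated with alpha-MSH peptide; potency of inhibitors of the alpha-MSH evoked signal.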 Type of assay: functional. In general terms: A counterscreen serves to expose hits that act by an unwanted route or on another target.
In assay [13] the target is E3 ubiquitin-protein ligase Mdm2 (Homo sapiens, UniProt Q00987). Kind of assay: enhancers of MDM2-luciferase reporter signal, concentration-effect titration, project on inhibitors of MDM2 ubiquitin ligase, cellular assay, luminescent readout, 384-well plate format (AID 1394).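 Further: MDM2 E3 inhibitors raise luminescence so EC50 is for signal enhancement.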 Type of assay: functional.
Assay [14] concerns BJ. As to the kind of experiment: cells. To be noted: Homo sapiens. Type of assay: functional, cell-based.
The subject of assay [15] is BJ. Kind of assay: cytotoxicity toward BJ-TERT fibroblasts, dose response, cell-based, RAS-independent, luminescence (AID 1933). To be noted: Homo sapiens. It is filed as functional.
Assay [16] can be described thus: control 3'UTR Renilla luciferase suppression, dose response, counter-screen for Shn3 inhibitor project, cell-based, Clone20-Shn3RL, cherry-picked (AID 624133). Type of assay: functional.
A short description of assay [17]: A549 cell cytotoxicity, dose response, cytotoxicity control, plate reader, cherry-pick, antagonist series (AID 743412). Type of assay: functional, cell-based.
The target in assay [18] is T4, COUP transcription factor 2 (Homo sapiens, UniProt P24468).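 Further: HEK293 cells transiently cotransfected with COUP-TFII expression vector and reporter; luciferase reporter luminescence driven by COUP-TFII from the pX2-168 reporter plasmid.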
T4 sequence (P24468 whole entry): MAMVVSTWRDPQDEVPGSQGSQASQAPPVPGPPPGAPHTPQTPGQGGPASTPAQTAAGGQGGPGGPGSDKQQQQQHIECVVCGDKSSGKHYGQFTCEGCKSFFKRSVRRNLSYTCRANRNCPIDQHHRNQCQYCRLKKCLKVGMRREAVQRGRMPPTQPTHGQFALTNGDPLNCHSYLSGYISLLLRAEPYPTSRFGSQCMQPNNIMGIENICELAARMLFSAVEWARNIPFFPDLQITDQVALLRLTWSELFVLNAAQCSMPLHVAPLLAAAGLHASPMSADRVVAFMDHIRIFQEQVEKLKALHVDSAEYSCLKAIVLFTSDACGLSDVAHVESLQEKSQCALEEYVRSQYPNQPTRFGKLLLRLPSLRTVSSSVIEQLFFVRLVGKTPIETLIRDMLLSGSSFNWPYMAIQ
Kind of assay: Luminescence-based cell-based high throughput dose response assay to identify inhibitors of COUP-TFII (NR2F2). Type of assay: functional.

Assay [19] can be described thus: HEK293 cell cytotoxicity, dose response, cytotoxicity control, plate reader, cherry-picked samples (AID 743446). Type of assay: functional, cell-based.
Assay [20] deals with Vero. Kind of assay: cells. It is filed as functional, Chlorocebus sabaeus. To be noted: Chlorocebus sabaeus, Vero.
Assay [21] in a line: cytotoxicity toward DRD oncogenic fibroblasts, dose response, cell-based, non-viral oncogenic, luminescence (AID 1934). It is filed as functional. The settings on record: Homo sapiens.
A short description of assay [22]: Jurkat T cell cytotoxicity, dose response, cytotoxicity control for P. falciparum gametocyte viability project, luminescence (AID 1117277).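 Further: potency reflects loss of cellular ATP meaning fewer viable cells.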 Type of assay: functional, cell-based.
A short description of assay [23]: P. falciparum late gametocyte killing, dose response, luminescence (AID 1117278).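 Further: gametocytes exposed to compound for 24 hours.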 It is filed as functional, cell-based.

Activity calls are given as the source filed them.

T1 sequence (Q00975 whole entry, the tested form may be a part): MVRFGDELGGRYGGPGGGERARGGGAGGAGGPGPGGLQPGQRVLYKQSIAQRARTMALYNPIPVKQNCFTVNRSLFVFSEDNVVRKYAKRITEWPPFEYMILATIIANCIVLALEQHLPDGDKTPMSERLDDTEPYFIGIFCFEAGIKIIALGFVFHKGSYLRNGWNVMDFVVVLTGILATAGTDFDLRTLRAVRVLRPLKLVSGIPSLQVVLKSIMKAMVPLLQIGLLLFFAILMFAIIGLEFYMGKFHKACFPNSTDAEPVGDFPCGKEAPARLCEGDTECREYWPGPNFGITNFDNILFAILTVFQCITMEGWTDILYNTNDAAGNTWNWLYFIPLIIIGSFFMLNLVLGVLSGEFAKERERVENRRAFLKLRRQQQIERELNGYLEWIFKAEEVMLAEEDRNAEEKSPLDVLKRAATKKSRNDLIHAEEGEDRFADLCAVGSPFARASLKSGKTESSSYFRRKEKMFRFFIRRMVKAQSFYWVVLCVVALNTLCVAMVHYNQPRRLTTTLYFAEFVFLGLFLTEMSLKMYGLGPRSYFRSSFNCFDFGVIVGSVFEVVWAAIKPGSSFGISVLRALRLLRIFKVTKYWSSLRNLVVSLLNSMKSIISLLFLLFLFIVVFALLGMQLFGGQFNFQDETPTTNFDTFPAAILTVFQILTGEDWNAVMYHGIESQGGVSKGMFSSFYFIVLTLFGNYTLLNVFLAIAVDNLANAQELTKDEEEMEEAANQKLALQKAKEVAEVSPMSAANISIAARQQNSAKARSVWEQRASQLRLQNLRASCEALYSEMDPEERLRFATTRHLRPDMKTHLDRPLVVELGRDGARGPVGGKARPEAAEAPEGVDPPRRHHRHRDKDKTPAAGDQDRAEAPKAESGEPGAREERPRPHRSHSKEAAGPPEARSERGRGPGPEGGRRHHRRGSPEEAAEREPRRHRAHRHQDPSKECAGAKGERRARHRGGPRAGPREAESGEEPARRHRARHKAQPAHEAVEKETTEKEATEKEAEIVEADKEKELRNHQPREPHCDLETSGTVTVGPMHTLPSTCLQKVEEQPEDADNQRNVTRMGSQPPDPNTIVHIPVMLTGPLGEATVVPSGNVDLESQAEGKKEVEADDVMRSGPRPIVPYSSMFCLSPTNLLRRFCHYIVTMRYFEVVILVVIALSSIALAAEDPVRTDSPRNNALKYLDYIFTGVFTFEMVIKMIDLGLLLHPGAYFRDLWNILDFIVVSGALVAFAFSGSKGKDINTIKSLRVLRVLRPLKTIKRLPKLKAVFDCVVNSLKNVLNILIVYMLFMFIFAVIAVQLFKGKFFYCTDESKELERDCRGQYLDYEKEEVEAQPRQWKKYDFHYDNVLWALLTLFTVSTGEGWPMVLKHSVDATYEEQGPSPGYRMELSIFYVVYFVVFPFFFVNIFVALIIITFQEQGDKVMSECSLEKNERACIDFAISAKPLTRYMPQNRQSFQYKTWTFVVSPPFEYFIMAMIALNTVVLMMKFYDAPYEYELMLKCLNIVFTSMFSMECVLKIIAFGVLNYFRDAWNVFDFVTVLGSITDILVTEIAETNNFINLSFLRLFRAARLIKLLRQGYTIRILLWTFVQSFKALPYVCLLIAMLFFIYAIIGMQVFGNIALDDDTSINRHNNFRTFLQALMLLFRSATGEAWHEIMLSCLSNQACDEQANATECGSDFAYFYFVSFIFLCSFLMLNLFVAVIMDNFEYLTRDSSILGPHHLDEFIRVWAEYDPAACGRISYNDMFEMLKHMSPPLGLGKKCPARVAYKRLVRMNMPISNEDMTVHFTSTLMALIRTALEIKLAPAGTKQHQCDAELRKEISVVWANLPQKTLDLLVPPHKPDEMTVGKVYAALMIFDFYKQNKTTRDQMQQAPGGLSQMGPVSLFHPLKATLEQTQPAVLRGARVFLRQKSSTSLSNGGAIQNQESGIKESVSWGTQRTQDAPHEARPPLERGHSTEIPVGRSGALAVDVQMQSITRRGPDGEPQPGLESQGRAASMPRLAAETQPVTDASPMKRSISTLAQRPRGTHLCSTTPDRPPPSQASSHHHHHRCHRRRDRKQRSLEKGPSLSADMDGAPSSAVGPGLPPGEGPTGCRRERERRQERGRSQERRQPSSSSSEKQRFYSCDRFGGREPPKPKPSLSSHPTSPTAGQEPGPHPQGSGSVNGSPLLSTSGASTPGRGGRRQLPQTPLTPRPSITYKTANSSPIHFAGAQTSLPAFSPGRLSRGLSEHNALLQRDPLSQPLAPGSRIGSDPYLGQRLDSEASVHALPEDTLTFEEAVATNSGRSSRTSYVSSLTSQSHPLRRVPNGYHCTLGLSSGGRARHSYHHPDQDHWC
T1 sequence (Q02410 whole entry, the tested form may be a part): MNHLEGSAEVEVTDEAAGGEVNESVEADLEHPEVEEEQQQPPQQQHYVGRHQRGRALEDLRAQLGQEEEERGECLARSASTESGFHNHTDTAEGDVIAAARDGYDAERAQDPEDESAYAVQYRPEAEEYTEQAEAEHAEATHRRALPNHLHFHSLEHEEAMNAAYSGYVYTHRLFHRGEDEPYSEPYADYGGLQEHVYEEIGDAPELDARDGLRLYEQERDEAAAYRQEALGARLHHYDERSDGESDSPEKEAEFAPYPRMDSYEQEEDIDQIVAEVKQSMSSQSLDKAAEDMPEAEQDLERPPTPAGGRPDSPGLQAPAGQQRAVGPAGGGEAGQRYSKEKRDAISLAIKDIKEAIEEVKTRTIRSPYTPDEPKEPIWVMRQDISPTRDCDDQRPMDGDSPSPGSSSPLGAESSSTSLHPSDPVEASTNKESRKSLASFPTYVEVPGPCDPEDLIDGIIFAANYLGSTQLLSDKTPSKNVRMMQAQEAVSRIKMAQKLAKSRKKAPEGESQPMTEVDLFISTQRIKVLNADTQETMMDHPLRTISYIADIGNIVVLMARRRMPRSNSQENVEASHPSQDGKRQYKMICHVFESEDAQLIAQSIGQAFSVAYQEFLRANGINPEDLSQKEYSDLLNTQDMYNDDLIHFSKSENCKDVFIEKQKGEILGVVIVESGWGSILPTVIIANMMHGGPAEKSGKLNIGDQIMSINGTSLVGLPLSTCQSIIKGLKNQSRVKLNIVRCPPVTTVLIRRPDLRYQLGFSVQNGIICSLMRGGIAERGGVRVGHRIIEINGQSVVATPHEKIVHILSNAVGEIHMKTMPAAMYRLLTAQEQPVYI
Chain of Protein Tat (P04608 whole entry): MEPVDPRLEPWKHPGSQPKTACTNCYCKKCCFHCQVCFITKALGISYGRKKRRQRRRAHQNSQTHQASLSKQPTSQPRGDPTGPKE
Chain of E3 ubiquitin-protein ligase Mdm2 (Q00987 whole entry): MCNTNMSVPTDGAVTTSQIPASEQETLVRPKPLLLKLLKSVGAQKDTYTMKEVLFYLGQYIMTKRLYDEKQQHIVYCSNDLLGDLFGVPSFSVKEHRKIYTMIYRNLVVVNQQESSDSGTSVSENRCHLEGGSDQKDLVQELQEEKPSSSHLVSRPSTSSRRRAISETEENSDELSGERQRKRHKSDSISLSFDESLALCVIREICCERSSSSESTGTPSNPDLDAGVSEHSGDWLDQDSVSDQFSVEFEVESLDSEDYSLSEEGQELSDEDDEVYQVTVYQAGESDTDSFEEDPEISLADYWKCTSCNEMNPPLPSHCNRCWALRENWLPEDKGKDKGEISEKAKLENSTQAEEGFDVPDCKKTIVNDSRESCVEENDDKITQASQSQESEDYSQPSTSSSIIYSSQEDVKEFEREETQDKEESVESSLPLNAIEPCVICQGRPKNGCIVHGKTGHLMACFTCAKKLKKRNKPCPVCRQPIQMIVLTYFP
Chain of Mitogen-activated protein kinase 10 (P53779 whole entry): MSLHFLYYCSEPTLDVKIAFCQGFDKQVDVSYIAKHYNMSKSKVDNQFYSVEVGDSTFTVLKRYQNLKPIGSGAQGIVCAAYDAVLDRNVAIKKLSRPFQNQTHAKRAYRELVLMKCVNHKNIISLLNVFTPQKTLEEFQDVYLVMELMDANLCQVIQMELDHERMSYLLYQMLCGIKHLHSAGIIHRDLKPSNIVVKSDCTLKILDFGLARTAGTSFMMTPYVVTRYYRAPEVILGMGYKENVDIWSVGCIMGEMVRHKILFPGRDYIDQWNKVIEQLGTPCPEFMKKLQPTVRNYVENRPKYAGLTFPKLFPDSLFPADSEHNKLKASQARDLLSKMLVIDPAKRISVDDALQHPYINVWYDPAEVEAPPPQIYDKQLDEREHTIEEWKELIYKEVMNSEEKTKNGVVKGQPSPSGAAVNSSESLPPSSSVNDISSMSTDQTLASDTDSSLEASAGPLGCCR

For the compound `COc1ccc(NS(=O)(=O)c2cccc(C(=O)NNC(=O)c3cccn3C)c2)cc1`, the IC50 on Protein Tat is > 100 µM (active); in assay [1] it was > 50 µM (inactive); in [2], 5.42 µM (active); in [3] it was 23.5 µM (active).
Turning to `CC(C)n1nc(C(=O)OCC(=O)N(C)C2CCS(=O)(=O)C2)c2ccccc2c1=O` (centres undefined), the IC50 in assay [4] is on record as 35.5 µM (not active).
For the compound `CCn1c(COc2ccc(Cl)c(C)c2)nnc1SCC(=O)N1CCCC1`, in [5], the IC50 was > 100 µM (not active).
In the case of `CCSc1nc2ccccc2n1C(=O)/C=C/c1ccc(OC)c(OC)c1`, the AC50 in assay [6] is 12.9 µM (active); in assay [8], 47 µM (active); in assay [10] it was 4.61 µM (active); in assay [11] it was 0.962 µM (active); in [12], 5.86 µM (active); in [16], 7.89 µM (active). For the same compound, the AC50 is 5.61 µM (active) in assay [17] and 5.58 µM (active) in [19]. For the same compound, the values for the IC50 (in the assay on Vero [7]; in assay [18]) were 10.4 µM (active) and 8.54 µM (active), respectively. Besides, the EC50 with BJ [9] was 13.6 µM (active); in [13], 2.65 µM (active); with BJ [14] it was > 75 µM (inconclusive); in the assay with BJ [15], > 150 µM (not active); in assay [21] it was 5.41 µM (inconclusive). The CC50 in the assay on Vero [20] was 20.2 µM (active).
As for `CC(CC(=O)Nc1ccc(F)c([N+](=O)[O-])c1)c1ccccc1` (centres undefined), the IC50 is > 83.3 µM (inactive) in assay [22] and > 109 µM (inactive) in [23].

As a reminder, the IC50 is the concentration that inhibits the measured activity by half. What is called AC50 is the midpoint of the concentration-response curve, whichever way the signal moves. As a reminder, the EC50 is the concentration at which the effect is half-maximal. Usually CC50 stands for the concentration giving 50% cytotoxicity.
